Test results from ChEMBL document CHEMBL3272154, “Synthesis of 1- and 2-substituted indazoles as anthelmintic agents” (1976).
Activity calls are given as the source filed them. The calls are words filed in the database; no cut-off is given here.

How the values were obtained:
Trichinella spiralis [1] = assay: Anthelmintic activity against Trichinella spiralis infected in mouse assessed as reduction in nematode level at 25 mg/kg, po and 25 mg/kg, sc administered 8 hrs post infection; assay type: functional
Trichinella spiralis [2] = assay: Anthelmintic activity against Trichinella spiralis infected in sheep assessed as reduction in intestinal nematode burden at 15 mg/kg, po after 7 days post dose; assay type: functional; details: 168 h
Trichinella spiralis [3] = assay: Anthelmintic activity against Trichinella spiralis infected in sheep assessed as reduction in intestinal nematode burden at 25 mg/kg, po after 7 days post dose; assay type: functional; details: 168 h
Trichinella spiralis [4] = assay: Anthelmintic activity against Trichinella spiralis infected in po dosed sheep assessed as reduction in intestinal nematode burden; assay type: functional, organism-based

Compound | inhibition in vivo at 25 mg/kg (Trichinella spiralis [1]) [%] | inhibition in vivo at 15 mg/kg (Trichinella spiralis [2]) [%] | inhibition in vivo at 25 mg/kg (Trichinella spiralis [3]) [%] | Activity (Trichinella spiralis [4])
O=C(c1ccco1)n1ncc2ccccc21 | 16 | 0 | – | –
CCCCCCCN(C)C(=O)n1cc2ccccc2n1 | 45 | 0 | – | –
COC(=O)Nc1nc2ccccc2[nH]1 [CARBENDAZIM] | 0 | – | 98 | –
CCCCCCCN(C)C(=O)Nc1nc2ccccc2[nH]1 | 14 | 0 | – | –
CCCCCCN(C)C(=O)n1ncc2ccc([N+](=O)[O-])cc21 | 41 | – | – | –
O=C(c1cnc2ccccc2n1)n1cc2ccccc2n1 | 36 | – | – | –
O=C(Nc1nc2ccccc2[nH]1)c1ccco1 | – | – | 99 | –
COC(=O)n1ncc2ccccc21 | 23 | – | – | –
O=C(c1ccco1)n1cc2ccccc2n1 | 58 | 0 | – | –
COC(=O)n1cc2ccccc2n1 | 26 | – | – | –
O=C(OCc1ccccc1)n1cc2ccccc2n1 | 74 | 0 | – | –
CCCCc1ccc2[nH]c(NC(=O)OC)nc2c1 [PARBENDAZOLE] | 99 | – | 99 | –
CCCCCCN(C)C(=O)n1cc2cc(Cl)ccc2n1 | 40 | – | – | –
CCCCCCCN(C)C(=O)n1nc2ccccc2n1 | – | – | – | Active
